Patent US4648996A, “Phenyl substituted-2,4,6,8-nonatetraenoic acid” (Hoffmann-La Roche Inc., priority 1985, dated 1987)

Key:
[1] = test system: adjuvant arthritis in the rat; experiment: Developing adjuvant arthritis in the rat; format: in vivo, AHH/R Female rats (PVG derived); details: for Joint Mobility (% INC) / Lesion Score (% RDN): day 15; for % reduction of paw swelling, Primary (right): days 0-4; for % reduction of paw swelling, Secondary (left) / % reduction of paw swelling, Secondary (right): days 8-15
Experimental: AHH/R Female rats (PVG derived with an initial weight range of 110 to 140 g. were used.
Adjuvant for injection. An homogenized suspension of heat killed M tuberculosis (Human strains C, DT and PN), 5 mg.Ml^-1 in liquid paraffin was prepared.
Rats were randomly split into groups of five and adjuvant arthritis was induced by the sub-plantar injection of 0.1 ml of adjuvant suspension into the right hind paw of each rat. Test compounds were administered by intubation each morning commencing the day of adjuvant injection. Two groups of control rats were dosed with the vehicle as was a group of three normal rats included for comparative purposes. Dosing was carried out daily until the end of the test on day 15 except for the first weekend (days 5 & 6). Treatment groups are shown in Table III and include etretinate as standard retinoid.
Measurements of right hind paw volume were made initially and on days 2 and 4 after and adjufant injection (primary phase). Right and left hind paw volume were then measured, on day 8 and every two or three days until the end of the experiment on day 15 (secondary phase). At this time the mobility of each ankle joint and the incidence and severity of secondary lesions on nose, ears, forepaws, left hind paw and tail were also assessed in terms of degrees of flexion possible and by using an arbitrary scoring system, respectively.
The time course curves for the injected paws were integrated from days 0 to 4 to reflect primary swelling and from days 8 to 15 (secondary swelling). The secondary swelling in the non-injected paw was integrated similarly from days 8 to 15. Calculations were carried out using a specific computer program which computed mean ± se for each integrated area. The significance of differences from controls was determined by Student's t test (2 tailed) and percentage reductions from control areas were calculated. Percentage improvements in joint mobility and percentage reductions in lesion score were also determined. In the latter case the Wilcoxon rank sum test (2 tailed) was used to express the difference from the control score using raw data. Mean body weight change in each group was recorded.

[2] = test system: carrageenan pleurisy in rats; experiment: Non-immune inflammation, 4 hr carrageenan pleurisy; format: in vivo, Female Alderley Park Strain 1 rats; details: 10 days
Experimental: Female Alderley Park Strain 1 rats weighing 170-205 g. at the start of the experiment were used.
Lambda-carrageenan. Prepared as a solution in saline and sterilized by autoclaving.
Compound A was administered orally to groups of 8 rats once daily for 10 days at doses of 10, 30 and 100 mg.kg^-1. Control animals received the vehicle. One hour after the last dose the animals were anesthetised with methohexitone (Brietal, 50 mg.kg^-1) and 0.2 ml of 1% lambda carrageenan was injected into the pleural cavity. Four hours later the animals were killed with an overdose of pentobarbitone (Sagatal), the pleural exudate was collected and the pleural cavity was washed out with 2 ml of phosphate-buffered saline (PBS-A, Oxoid). The exudate volume was recorded and cell counts were determined using an automatic cell counter (Coulter). Differential cell counts were performed on exudate smears stained with Giemsa stain in order to determine separately the numbers of polymorphonuclear leucocytes (PMN) and mononuclear cells (MN).
Immediately after recovery of the pleural exudates the tibiae of the animals were excised and their breaking strains were determined.
The body weights of the animals were recorded daily. Statistical analyses were performed using Student's two-tailed t test.

[3] = test system: established adjuvant arthritis in rats; experiment: Effect on the course of established adjuvant arthritis; format: in vivo, Male Lewis rats from Charles River; details: 100 mg/kg, 7 days
Experimental: Male Lewis rats from Charles River were used for these experiments.
Heat-killed, dessicated Mycobacteriam butyricum.
Adjuvant arthritis was induced by the injection of 0.1 ml of adjuvant [a suspension of heat-killed, dessicated Mycobacterium butyricum, 0.5% CW/V) in heavy mineral oil containing 0.2% digitonin] into the base of the tail. The arthritis was allowed to develop for 21 days and then the volume of both hind paws were measured using a mercury plethysmograph. The rats were divided into groups of 8 with equal mean paw volumes and then the rats were treated with Compound A, indomethacin (as a control drug), or vehicle for 7 days at the end of the treatment period, the volumes of both hind paws were again measured to assess antiinflammatory effects. Body weight changes were also followed and, at the end of the experiment, plasma was collected for determination of plasma fibrinogen (Exner et. al., Amer. J. Clin. Path, 71: 521-527).
^b Drugs were administered once a day for 7 days by intubation
^c Change in paw volume/body weight equals paw volume body weight on […]

CCCCCCCCCOc1ccccc1/C=C/C(C)=C/C=C/C(C)=C/C(=O)O [Compound A, All(E)-9-[2(nonyloxy)phenyl]-3,7-dimethyl-2,4,6,8-nonatetraenoic acid]
Joint Mobility (% INC) ([1]; 15 mg.kg^-1 p.o.): 66%
Lesion Score (% RDN) ([1]; 15 mg.kg^-1 p.o.): 72%
% reduction of paw swelling, Primary (right) ([1]; 15 mg.kg^-1 p.o.): -6%
% reduction of paw swelling, Secondary (left) ([1]; 15 mg.kg^-1 p.o.): 94%
% reduction of paw swelling, Secondary (right) ([1]; 15 mg.kg^-1 p.o.): 30%
Joint Mobility (% INC) ([1]; 45 mg.kg^-1 p.o.): 66%
Lesion Score (% RDN) ([1]; 45 mg.kg^-1 p.o.): 65%
% reduction of paw swelling, Primary (right) ([1]; 45 mg.kg^-1 p.o.): 16%
% reduction of paw swelling, Secondary (left) ([1]; 45 mg.kg^-1 p.o.): 75%
% reduction of paw swelling, Secondary (right) ([1]; 45 mg.kg^-1 p.o.): 51%
Exudate Volume ([2]; 10 mg per kg per day p.o.): 0.94 mL
Exudate Volume % change ([2]; 10 mg per kg per day p.o.): -32.8%
Tibial Breaking Strain (Right + Left) % change ([2]; 10 mg per kg per day p.o.): -3.4%
Tibial Breaking Strain (Right + Left) Mean ([2]; 10 mg per kg per day p.o.): 6.5 kg
Total Cell Count ([2]; 10 mg per kg per day p.o.): 120.8 ×10^6
Total Cell Count % change ([2]; 10 mg per kg per day p.o.): -6.5%
Total MN ([2]; 10 mg per kg per day p.o.): 8.4 ×10^6
Total MN % change ([2]; 10 mg per kg per day p.o.): -17.4%
Total PMN ([2]; 10 mg per kg per day p.o.): 112.4 ×10^6
Total PMN % change ([2]; 10 mg per kg per day p.o.): -5.6%
Exudate Volume ([2]; 30 mg per kg per day p.o.): 0.88 mL
Exudate Volume % change ([2]; 30 mg per kg per day p.o.): -36.9%
Tibial Breaking Strain (Right + Left) % change ([2]; 30 mg per kg per day p.o.): +1.5%
Tibial Breaking Strain (Right + Left) Mean ([2]; 30 mg per kg per day p.o.): 6.8 kg
Total Cell Count ([2]; 30 mg per kg per day p.o.): 112.1 ×10^6
Total Cell Count % change ([2]; 30 mg per kg per day p.o.): -13.3%
Total MN ([2]; 30 mg per kg per day p.o.): 7.9 ×10^6
Total MN % change ([2]; 30 mg per kg per day p.o.): -23.1%
Total PMN ([2]; 30 mg per kg per day p.o.): 104.2 ×10^6
Total PMN % change ([2]; 30 mg per kg per day p.o.): -12.4%
Exudate Volume ([2]; 100 mg per kg per day p.o.): 0.80 mL
Exudate Volume % change ([2]; 100 mg per kg per day p.o.): -42.9%
Tibial Breaking Strain (Right + Left) % change ([2]; 100 mg per kg per day p.o.): -0.3%
Tibial Breaking Strain (Right + Left) Mean ([2]; 100 mg per kg per day p.o.): 6.7 kg
Total Cell Count ([2]; 100 mg per kg per day p.o.): 109.1 ×10^6
Total Cell Count % change ([2]; 100 mg per kg per day p.o.): -15.7%
Total MN ([2]; 100 mg per kg per day p.o.): 7.5 ×10^6
Total MN % change ([2]; 100 mg per kg per day p.o.): -26.7%
Total PMN ([2]; 100 mg per kg per day p.o.): 101.6 ×10^6
Total PMN % change ([2]; 100 mg per kg per day p.o.): -14.7%
Plasma Fibrinogen [3]: 874 ± 57 mg/dL
Change in Body Weight ([3]; day 28 minus day 22): 5.2 ± 2.1 g
Change in Paw Volume ([3]; day 28 minus day 22, both hind paws): -0.96 ± 0.10 mL
